Results as given in patent US10358434B2, “2-(3-pyridinyl)-1H-benzimidazole derivative compound and medicament containing same” (NIHON MEDI-PHYSICS CO., LTD., priority 2014, dated 2019).

Key:
[1] = tested on: human adrenal gland section expressing aldosterone-producing adenoma; experiment: In vitro autoradiography using human adrenal adenoma; assay type: binding
How it was run: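 Frozen 7-μm sections of human adrenal bearing aldosterone-producing adenoma were immersed 10 min in radioligand (5-33 kBq/mL) in PBS with 1% fatty-acid-free BSA, washed, then exposed to imaging plates for 16-20 h. Equal-area ROI PSL in adenoma (B2) versus normal cortex (B1) gave B2/B1, corrected for nuclide half-life, added activity and exposure time.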

[2] = Plasma stability evaluation (TLC analysis); assay type: in vitro ADME; conditions: 37° C., 60 minutes
How it was run: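 Radiolabelled compounds were incubated in heparin-treated pooled normal human plasma at 37° C for 60 minutes. After methanol deproteinization and centrifugation, stability was assessed by TLC under the conditions used for each compound's synthesis.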

[3] = In vivo kinetics experiment (radioactivity distribution); parameters: species or system Wistar male rat; conditions: rat; for Adrenal gland/blood ratio of radioactivity accumulation / Adrenal gland/fat ratio of radioactivity accumulation / Adrenal gland/kidney ratio of radioactivity accumulation / Adrenal gland/liver ratio of radioactivity accumulation / Adrenal gland/muscle ratio of radioactivity accumulation / Adrenal gland/small intestine ratio of radioactivity accumulation / Radioactivity distribution Adrenal gland / Radioactivity distribution Bladder (including urine) / Radioactivity distribution Blood / Radioactivity distribution Fat / Radioactivity distribution Femur / Radioactivity distribution Heart / Radioactivity distribution Kidney / Radioactivity distribution Large intestine / Radioactivity distribution Liver / Radioactivity distribution Lung / Radioactivity distribution Muscle (lower limbs) / Radioactivity distribution Remaining whole body / Radioactivity distribution Small intestine / Radioactivity distribution Spleen / Radioactivity distribution Stomach / Radioactivity distribution Testis / Radioactivity distribution Whole brain: caudal vein
How it was run: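 Male Wistar rats (9 weeks) under isoflurane received approximately 1 to 3.7 MBq radiotracer in saline with 1 w/v % ascorbic acid by tail-vein injection. At 10, 30 and 60 min, rats were exsanguinated; blood, organs and remaining body weighed and counted, giving % ID/g and adrenal-to-tissue ratios.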

Radiochemical purity after incubation in human plasma ([2]; TLC analysis): 92% | Adrenal gland/blood ratio of radioactivity accumulation ([3]; 10 min after administration): 100.87 ± 36.73 | Adrenal gland/fat ratio of radioactivity accumulation ([3]; 10 min after administration): 174.42 ± 63.32 | Adrenal gland/kidney ratio of radioactivity accumulation ([3]; 10 min after administration): 11.40 ± 5.81 | Adrenal gland/liver ratio of radioactivity accumulation ([3]; 10 min after administration): 2.68 ± 1.01 | Adrenal gland/muscle ratio of radioactivity accumulation ([3]; 10 min after administration): 88.35 ± 26.16 | Adrenal gland/small intestine ratio of radioactivity accumulation ([3]; 10 min after administration): 13.32 ± 3.08 | Radioactivity distribution Adrenal gland ([3]; 10 min after administration): 14.35 ± 4.09 % ID/g | Radioactivity distribution Bladder (including urine) ([3]; 10 min after administration): 1.28 ± 0.11 % ID/g | Radioactivity distribution Blood ([3]; 10 min after administration): 0.15 ± 0.01 % ID/g | Radioactivity distribution Fat ([3]; 10 min after administration): 0.08 ± 0.02 % ID/g | Radioactivity distribution Femur ([3]; 10 min after administration): 0.38 ± 0.03 % ID/g | Radioactivity distribution Heart ([3]; 10 min after administration): 0.32 ± 0.03 % ID/g | Radioactivity distribution Kidney ([3]; 10 min after administration): 1.39 ± 0.39 % ID/g | Radioactivity distribution Large intestine ([3]; 10 min after administration): 0.16 ± 0.01 % ID/g | Radioactivity distribution Liver ([3]; 10 min after administration): 5.54 ± 0.78 % ID/g | Radioactivity distribution Lung ([3]; 10 min after administration): 0.54 ± 0.07 % ID/g | Radioactivity distribution Muscle (lower limbs) ([3]; 10 min after administration): 0.16 ± 0.00 % ID/g | Radioactivity distribution Remaining whole body ([3]; 10 min after administration): 0.15 ± 0.00 % ID/g | Radioactivity distribution Small intestine ([3]; 10 min after administration): 1.07 ± 0.07 % ID/g | Radioactivity distribution Spleen ([3]; 10 min after administration): 1.49 ± 0.32 % ID/g | Radioactivity distribution Stomach ([3]; 10 min after administration): 0.36 ± 0.04 % ID/g | Radioactivity distribution Testis ([3]; 10 min after administration): 0.04 ± 0.00 % ID/g | Radioactivity distribution Whole brain ([3]; 10 min after administration): 0.02 ± 0.00 % ID/g | Adrenal gland/blood ratio of radioactivity accumulation ([3]; 30 min after administration): 145.45 ± 14.69 | Adrenal gland/fat ratio of radioactivity accumulation ([3]; 30 min after administration): 425.84 ± 103.54 | Adrenal gland/kidney ratio of radioactivity accumulation ([3]; 30 min after administration): 17.00 ± 1.67 | Adrenal gland/liver ratio of radioactivity accumulation ([3]; 30 min after administration): 5.06 ± 0.59 | Adrenal gland/muscle ratio of radioactivity accumulation ([3]; 30 min after administration): 158.65 ± 18.59 | Adrenal gland/small intestine ratio of radioactivity accumulation ([3]; 30 min after administration): 8.44 ± 1.36 | Radioactivity distribution Adrenal gland ([3]; 30 min after administration): 22.61 ± 2.12 % ID/g | Radioactivity distribution Bladder (including urine) ([3]; 30 min after administration): 2.82 ± 1.27 % ID/g | Radioactivity distribution Blood ([3]; 30 min after administration): 0.16 ± 0.00 % ID/g | Radioactivity distribution Fat ([3]; 30 min after administration): 0.06 ± 0.02 % ID/g | Radioactivity distribution Femur ([3]; 30 min after administration): 0.40 ± 0.10 % ID/g | Radioactivity distribution Heart ([3]; 30 min after administration): 0.33 ± 0.02 % ID/g | Radioactivity distribution Kidney ([3]; 30 min after administration): 1.33 ± 0.03 % ID/g | Radioactivity distribution Large intestine ([3]; 30 min after administration): 0.27 ± 0.04 % ID/g | Radioactivity distribution Liver ([3]; 30 min after administration): 4.48 ± 0.13 % ID/g | Radioactivity distribution Lung ([3]; 30 min after administration): 0.48 ± 0.04 % ID/g | Radioactivity distribution Muscle (lower limbs) ([3]; 30 min after administration): 0.14 ± 0.01 % ID/g | Radioactivity distribution Remaining whole body ([3]; 30 min after administration): 0.13 ± 0.02 % ID/g | Radioactivity distribution Small intestine ([3]; 30 min after administration): 2.70 ± 0.21 % ID/g | Radioactivity distribution Spleen ([3]; 30 min after administration): 1.09 ± 0.25 % ID/g | Radioactivity distribution Stomach ([3]; 30 min after administration): 0.56 ± 0.06 % ID/g | Radioactivity distribution Testis ([3]; 30 min after administration): 0.05 ± 0.04 % ID/g | Radioactivity distribution Whole brain ([3]; 30 min after administration): 0.01 ± 0.00 % ID/g | Adrenal gland/blood ratio of radioactivity accumulation ([3]; 60 min after administration): 168.33 ± 36.80 | Adrenal gland/fat ratio of radioactivity accumulation ([3]; 60 min after administration): 417.70 ± 25.29 | Adrenal gland/kidney ratio of radioactivity accumulation ([3]; 60 min after administration): 18.05 ± 3.00 | Adrenal gland/liver ratio of radioactivity accumulation ([3]; 60 min after administration): 6.87 ± 1.26 | Adrenal gland/muscle ratio of radioactivity accumulation ([3]; 60 min after administration): 180.41 ± 24.02 | Adrenal gland/small intestine ratio of radioactivity accumulation ([3]; 60 min after administration): 5.43 ± 1.42 | Radioactivity distribution Adrenal gland ([3]; 60 min after administration): 21.73 ± 3.25 % ID/g | Radioactivity distribution Bladder (including urine) ([3]; 60 min after administration): 5.83 ± 2.21 % ID/g | Radioactivity distribution Blood ([3]; 60 min after administration): 0.13 ± 0.01 % ID/g | Radioactivity distribution Fat ([3]; 60 min after administration): 0.05 ± 0.00 % ID/g | Radioactivity distribution Femur ([3]; 60 min after administration): 0.28 ± 0.00 % ID/g | Radioactivity distribution Heart ([3]; 60 min after administration): 0.27 ± 0.02 % ID/g | Radioactivity distribution Kidney ([3]; 60 min after administration): 1.21 ± 0.04 % ID/g | Radioactivity distribution Large intestine ([3]; 60 min after administration): 0.41 ± 0.06 % ID/g | Radioactivity distribution Liver ([3]; 60 min after administration): 3.18 ± 0.23 % ID/g | Radioactivity distribution Lung ([3]; 60 min after administration): 0.39 ± 0.09 % ID/g | Radioactivity distribution Muscle (lower limbs) ([3]; 60 min after administration): 0.12 ± 0.00 % ID/g | Radioactivity distribution Remaining whole body ([3]; 60 min after administration): 0.12 ± 0.00 % ID/g | Radioactivity distribution Small intestine ([3]; 60 min after administration): 4.13 ± 0.83 % ID/g | Radioactivity distribution Spleen ([3]; 60 min after administration): 0.68 ± 0.05 % ID/g | Radioactivity distribution Stomach ([3]; 60 min after administration): 0.65 ± 0.16 % ID/g | Radioactivity distribution Testis ([3]; 60 min after administration): 0.09 ± 0.00 % ID/g | Radioactivity distribution Whole brain ([3]; 60 min after administration): 0.01 ± 0.00 % ID/g
SMILES: Fc1cc2nc(-c3cncc(Cn4ccnc4)c3)n(CC[18F])c2cc1Br [[^18F] 200, 6-Bromo-5-fluoro-1-(2-[^18F]fluoroethyl)-2-[5-(imidazol-1-ylmethyl)pyridin-3-yl]benzimidazole]
accumulation of radioactivity in adrenal gland section (autoradiogram) ([1]; FIGS. 18 to 31): accumulation of radioactivity was selectively observed in a region in which aldosterone-producing adenoma had been pathologically observed | B2/B1 accumulation ratio ([1]; section of FIG. 17(a)): 3.34 | B2 (PSL value, aldosterone-producing adenoma) ([1]; section of FIG. 17(a), site 71a): 4409 | B1 (PSL value, normal adrenal cortex) ([1]; section of FIG. 17(a), site 72a): 1321 | stability in human plasma [2]: hardly metabolized and decomposed in the plasma | accumulation of radioactivity in adrenal gland vs blood and peripheral tissues ([3]; Tables 9 to 22): high accumulation of radioactivity in adrenal gland was observed, in comparison to in blood and peripheral tissues
